The assay has as its target HLA B*1503 (Homo sapiens, UniProt P01889, A329T/A93T/A95T/C349S/D201E/D98Y/E187L/E204Q/K202T/N87E/Q94N/R155S/R180L/S121R/S35A/V306I/V36M/Y140S/Y91S). Nature of the assay: biochemical. The class given is binding.

Where a SMILES comes first, the peptide text is derived from it.

In the case of `C[C@@H](O)[C@H](NC(=O)[C@H](CO)NC(=O)CNC(=O)[C@H](CCCNC(=N)N)NC(=O)[C@H](CC(N)=O)NC(=O)CNC(=O)[C@@H](N)CO)C(=O)N[C@@H](CO)C(=O)N[C@@H](Cc1ccccc1)C(=O)O` [3102.1101] (H-SGNRGSTSF-OH), the IC50 is 25 nM.
As for `CC[C@H](C)[C@H](NC(=O)[C@H](CCSC)NC(=O)[C@H](CC(=O)O)NC(=O)[C@H](CC(N)=O)NC(=O)[C@@H](NC(=O)[C@H](CCSC)NC(=O)[C@H](CCC(N)=O)NC(=O)[C@@H](N)CCCNC(=N)N)C(C)C)C(=O)N[C@@H](Cc1ccccc1)C(=O)O` [3102.1102] (H-RQMVNDMIF-OH), the IC50 is 1.3 nM.
The same measure for `N=C(N)NCCC[C@H](NC(=O)[C@H](CC(=O)O)NC(=O)[C@H](CCCCN)NC(=O)[C@H](CCC(=O)O)NC(=O)[C@H](Cc1ccccc1)NC(=O)[C@H](CCC(N)=O)NC(=O)[C@@H](N)CCCNC(=N)N)C(=O)N[C@@H](CO)C(=O)N[C@@H](Cc1ccccc1)C(=O)O` [3102.1103] (H-RQFEKDRSF-OH): 0.14 nM; for `CC[C@H](C)[C@H](N)C(=O)N[C@@H](CCC(N)=O)C(=O)N[C@H](C(=O)N[C@@H](CC(C)C)C(=O)N[C@@H](CC(N)=O)C(=O)NCC(=O)N[C@@H](CCCCN)C(=O)N[C@@H](Cc1c[nH]cn1)C(=O)N[C@@H](Cc1ccccc1)C(=O)O)[C@@H](C)O` [3102.1105] (H-IQTLNGKHF-OH): 11 nM.
The value for `CC[C@H](C)[C@H](NC(=O)[C@@H](NC(=O)[C@H](CCC(=O)O)NC(=O)[C@H](CCC(=O)O)NC(=O)[C@H](CO)NC(=O)[C@H](CCSC)NC(=O)[C@@H](N)CC(C)C)[C@@H](C)O)C(=O)N[C@@H](CC(=O)O)C(=O)N[C@@H](Cc1ccccc1)C(=O)O` [3102.1106] (H-LMSEETIDF-OH) was 12 nM.
The value for `CC[C@H](C)[C@H](NC(=O)[C@@H](NC(=O)[C@H](CCC(=O)O)NC(=O)[C@H](Cc1ccccc1)NC(=O)[C@H](Cc1ccccc1)NC(=O)[C@H](CCCCN)NC(=O)[C@@H](N)CC(N)=O)C(C)C)C(=O)N[C@@H](Cc1ccccc1)C(=O)N[C@@H](Cc1ccccc1)C(=O)O` [3102.1109] (H-NKFFEVIFF-OH) was 19 nM.
The compound `CC(C)C[C@H](NC(=O)[C@H](Cc1ccc(O)cc1)NC(=O)[C@H](CCC(N)=O)NC(=O)[C@H](CO)NC(=O)[C@H](CCCNC(=N)N)NC(=O)[C@H](CC(N)=O)NC(=O)[C@H](CCC(N)=O)NC(=O)[C@@H](N)CCCNC(=N)N)C(=O)N[C@@H](Cc1ccccc1)C(=O)O` [3102.1112] (H-RQNRSQYLF-OH) came in with an IC50 of 0.14 nM. This IC50 lies about 140-fold lower than the previous one.
As for `CC[C@H](C)[C@H](NC(=O)CNC(=O)[C@H](CC(C)C)NC(=O)[C@H](CCSC)NC(=O)[C@H](CO)NC(=O)[C@@H](N)Cc1ccccc1)C(=O)N[C@@H](Cc1c[nH]c2ccccc12)C(=O)N[C@@H](Cc1ccccc1)C(=O)N[C@@H](Cc1ccccc1)C(=O)O` [3102.1113] (H-FSMLGIWFF-OH), the IC50 worked out at 28 nM.
In the case of `CC(C)C[C@H](NC(=O)[C@H](Cc1ccccc1)NC(=O)[C@H](CO)NC(=O)[C@@H](N)CC(C)C)C(=O)N[C@@H](CO)C(=O)N[C@@H](CCCNC(=N)N)C(=O)N[C@H](C(=O)N[C@@H](Cc1ccccc1)C(=O)N[C@@H](Cc1ccccc1)C(=O)O)C(C)C` [3102.1115] (H-LSFLSRVFF-OH), the midpoint of inhibition, the IC50, lay at 0.33 nM.
Consider `CC[C@H](C)[C@H](NC(=O)[C@H](CO)NC(=O)[C@@H](NC(=O)[C@H](CCC(N)=O)NC(=O)[C@H](CO)NC(=O)[C@H](CC(N)=O)NC(=O)[C@H](Cc1ccccc1)NC(=O)[C@H](CCCCN)NC(=O)[C@@H](N)Cc1ccccc1)C(C)C)C(=O)O` [3102.1116] (H-FKFNSQVSI-OH), for which the IC50 came to 1.2 nM.
Take `CC(C)C[C@H](NC(=O)[C@H](CO)NC(=O)[C@H](CS)NC(=O)[C@@H](NC(=O)[C@H](Cc1ccccc1)NC(=O)[C@H](CCC(N)=O)NC(=O)[C@@H](N)CO)[C@@H](C)O)C(=O)N[C@@H](C)C(=O)N[C@H](C(=O)O)C(C)C` [3102.1117] (H-SQFTCSLAV-OH): the IC50 was determined as 1.5 nM.
As for `CC(C)[C@H](N)C(=O)N[C@@H](CCC(=O)O)C(=O)N[C@H](C(=O)N[C@@H](CCC(=O)O)C(=O)N1CCC[C@H]1C(=O)NCC(=O)N[C@@H](CO)C(=O)N[C@@H](CO)C(=O)N[C@@H](Cc1ccccc1)C(=O)O)C(C)C` [3102.1119] (H-VEVEPGSSF-OH), half-maximal inhibition (IC50) was put at 1.7 nM.
`CC[C@H](C)[C@H](N)C(=O)N[C@@H](CCCCN)C(=O)N[C@@H](Cc1ccc(O)cc1)C(=O)N[C@@H](CCSC)C(=O)N[C@H](C(=O)NCC(=O)N[C@@H](CC(N)=O)C(=O)N[C@@H](Cc1ccccc1)C(=O)N[C@@H](CCSC)C(=O)O)[C@@H](C)CC` [3102.1120] (H-IKYMIGNFM-OH) displayed an IC50 of 2.2 nM. The IC50 values of the last two compounds are within 1.5-fold of each other.
The value for `CSCC[C@H](NC(=O)[C@H](CCCCN)NC(=O)[C@@H](N)CCCCN)C(=O)N[C@H](C(=O)N[C@@H](CS)C(=O)NCC(=O)N[C@@H](CCC(N)=O)C(=O)N1CCC[C@H]1C(=O)N[C@@H](CC(C)C)C(=O)O)[C@@H](C)O` [3102.1121] (H-KKMTCGQPL-OH) was 1.5 nM; that for `CC(C)[C@H](N)C(=O)N[C@@H](CCCCN)C(=O)N[C@H](C(=O)N[C@@H](CCCCN)C(=O)N[C@@H](CCC(=O)O)C(=O)N[C@@H](CCC(=O)O)C(=O)N[C@@H](CC(N)=O)C(=O)N[C@H](C(=O)N[C@@H](Cc1ccccc1)C(=O)O)[C@@H](C)O)C(C)C` [3102.1122] (H-VKVKEENTF-OH) was 0.42 nM; that for `CC(C)[C@H](NC(=O)[C@H](CCC(N)=O)NC(=O)[C@@H](N)CCCNC(=N)N)C(=O)N[C@H](C(=O)N[C@@H](CC(=O)O)C(=O)N[C@@H](Cc1ccccc1)C(=O)N[C@@H](Cc1ccccc1)C(=O)N[C@@H](CCCCN)C(=O)N[C@@H](Cc1ccccc1)C(=O)O)C(C)C` [3102.1123] (H-RQVVDFFKF-OH) was 0.34 nM.
The value for `CC(C)[C@H](NC(=O)[C@H](Cc1ccc(O)cc1)NC(=O)[C@H](CCC(N)=O)NC(=O)[C@@H](N)Cc1ccccc1)C(=O)N[C@@H](CO)C(=O)N[C@@H](Cc1ccc(O)cc1)C(=O)N[C@@H](CO)C(=O)N[C@@H](CC(N)=O)C(=O)N[C@@H](Cc1ccccc1)C(=O)O` [3102.1128] (H-FQYVSYSNF-OH) was 0.26 nM.
In the case of `CC(C)C[C@H](NC(=O)[C@H](CO)NC(=O)[C@@H](NC(=O)[C@H](CCCNC(=N)N)NC(=O)[C@H](CO)NC(=O)[C@H](CC(C)C)NC(=O)[C@H](Cc1ccc(O)cc1)NC(=O)[C@H](CCC(N)=O)NC(=O)[C@@H](N)CO)C(C)C)C(=O)O` [3102.1130] (H-SQYLSRVSL-OH), the IC50 worked out at 0.24 nM.
As for `CC(C)C[C@H](NC(=O)[C@@H](NC(=O)[C@H](CC(N)=O)NC(=O)[C@@H]1CCCN1C(=O)[C@@H]1CCCN1C(=O)[C@H](CO)NC(=O)[C@@H](NC(=O)[C@H](CO)NC(=O)[C@@H](N)CO)C(C)C)C(C)C)C(=O)O` [3102.1131] (H-SSVSPPNVL-OH), the IC50 was determined as 18 nM.
The value for `CC[C@H](C)[C@H](NC(=O)[C@H](CCC(N)=O)NC(=O)[C@H](CC(N)=O)NC(=O)[C@H](CC(=O)O)NC(=O)[C@H](CCCNC(=N)N)NC(=O)[C@H](C)NC(=O)[C@@H](N)Cc1ccccc1)C(=O)N[C@@H](CO)C(=O)N[C@@H](Cc1ccccc1)C(=O)O` [3102.1132] (H-FARDNQISF-OH) was 0.2 nM; that for `CC(C)[C@H](NC(=O)[C@H](Cc1c[nH]cn1)NC(=O)[C@H](CCC(N)=O)NC(=O)CNC(=O)[C@H](Cc1ccccc1)NC(=O)[C@H](CS)NC(=O)[C@H](CC(N)=O)NC(=O)[C@H](C)NC(=O)[C@H](C)N)C(=O)O` [3102.1133] (H-AANCFGQHV-OH) was 22 nM; that for `CC[C@H](C)[C@H](NC(=O)[C@@H]1CCCN1C(=O)CNC(=O)[C@H](Cc1ccccc1)NC(=O)[C@H](Cc1ccccc1)NC(=O)[C@@H](NC(=O)[C@H](CCCCN)NC(=O)[C@@H](N)CO)C(C)C)C(=O)N[C@@H](Cc1ccc(O)cc1)C(=O)O` [3102.1134] (H-SKVFFGPIY-OH) was 1 nM.
As to `CC(C)C[C@H](NC(=O)[C@H](Cc1ccccc1)NC(=O)[C@@H]1CCCN1C(=O)[C@H](CCCNC(=N)N)NC(=O)[C@@H](NC(=O)[C@H](CC(C)C)NC(=O)[C@@H](N)CCCNC(=N)N)C(C)C)C(=O)N[C@H](C(=O)N[C@H](C(=O)O)C(C)C)C(C)C` [3102.1135] (H-RLVRPFLVV-OH), it took 16 nM to reach half-maximal inhibition (IC50).
`CC[C@H](C)[C@H](N)C(=O)N[C@@H](CCCCN)C(=O)N[C@@H](CO)C(=O)N[C@@H](Cc1ccc(O)cc1)C(=O)N[C@H](C(=O)N[C@H](C(=O)N[C@@H](CCCNC(=N)N)C(=O)N[C@H](C(=O)N[C@@H](Cc1ccccc1)C(=O)O)C(C)C)[C@@H](C)CC)[C@@H](C)O` [3102.1137] (H-IKSYTIRVF-OH) displayed an IC50 of 1.6 nM.
The same measure for `CC[C@H](C)[C@H](NC(=O)[C@H](CCSC)NC(=O)[C@H](CC(C)C)NC(=O)[C@@H]1CCCN1C(=O)[C@H](CCCNC(=N)N)NC(=O)[C@H](Cc1ccccc1)NC(=O)[C@H](CCCCN)NC(=O)[C@@H](N)CCCCN)C(=O)N[C@@H](Cc1ccccc1)C(=O)O` [3102.1138] (H-KKFRPLMIF-OH): 0.17 nM.
`CC(C)C[C@H](NC(=O)[C@H](Cc1ccccc1)NC(=O)[C@H](CCCNC(=N)N)NC(=O)[C@@H](N)CC(C)C)C(=O)N[C@@H](CCC(=O)O)C(=O)N[C@@H](CCCCN)C(=O)N[C@H](C(=O)N[C@@H](CO)C(=O)N[C@@H](Cc1ccccc1)C(=O)O)[C@@H](C)O` [3102.1139] (H-LRFLEKTSF-OH) displayed a half-inhibitory concentration (IC50) of 2.2 nM. Against the preceding compound, the IC50 is about 13-fold higher.
For `CC[C@H](C)[C@H](NC(=O)[C@@H](NC(=O)[C@H](CCSC)NC(=O)[C@@H](N)CO)C(C)C)C(=O)N[C@@H](CO)C(=O)N[C@@H](CC(C)C)C(=O)N[C@@H](CC(C)C)C(=O)N[C@@H](CO)C(=O)N[C@@H](CCSC)C(=O)O` [3102.1140] (H-SMVISLLSM-OH), half-maximal inhibition (IC50) was put at 8 nM.
As to `CC[C@H](C)[C@H](N)C(=O)N[C@@H](CC(C)C)C(=O)N[C@@H](Cc1c[nH]cn1)C(=O)N[C@@H](CO)C(=O)N[C@@H](CC(=O)O)C(=O)N[C@@H](Cc1ccc(O)cc1)C(=O)N[C@@H](CCC(N)=O)C(=O)N[C@@H](CC(C)C)C(=O)N[C@@H](Cc1ccccc1)C(=O)O` [3102.1141] (H-ILHSDYQLF-OH), the IC50 came out at 2.4 nM. Compared with the last compound, the IC50 is about 3.3-fold lower.
The value for `CSCC[C@H](NC(=O)[C@H](CCCCN)NC(=O)[C@@H](N)CCCCN)C(=O)N[C@@H](CCC(N)=O)C(=O)N[C@@H](CO)C(=O)N[C@@H](Cc1ccc(O)cc1)C(=O)N[C@@H](CC(N)=O)C(=O)N[C@@H](CO)C(=O)N[C@H](C(=O)O)C(C)C` [3102.1143] (H-KKMQSYNSV-OH) was 2.8 nM.
